Results: patent US12486273B2 (Hoffmann-La Roche Inc., priority 2019, dated 2025)

Legend:
human TLR8 = human TLR8 (Homo sapiens (Human), UniProt Q9NR97); test: HEK293-Blue-hTLR-8 cells assay; assay type: cell-based; details: HEK293-Blue-hTLR8 cells, R848 stimulation, 20 hrs, SEAP reporter; read-out: HEK/hTLR8 IC50
human TLR7 = human TLR7 (Homo sapiens (Human), UniProt Q9NYK1); test: HEK293-Blue-hTLR-7 cells assay; assay type: cell-based; details: HEK293-Blue-hTLR7 cells, R848 stimulation, 20 hrs, SEAP reporter; read-out: HEK/hTLR7 IC50
Sequence of human TLR7 (Q9NYK1 27-1049): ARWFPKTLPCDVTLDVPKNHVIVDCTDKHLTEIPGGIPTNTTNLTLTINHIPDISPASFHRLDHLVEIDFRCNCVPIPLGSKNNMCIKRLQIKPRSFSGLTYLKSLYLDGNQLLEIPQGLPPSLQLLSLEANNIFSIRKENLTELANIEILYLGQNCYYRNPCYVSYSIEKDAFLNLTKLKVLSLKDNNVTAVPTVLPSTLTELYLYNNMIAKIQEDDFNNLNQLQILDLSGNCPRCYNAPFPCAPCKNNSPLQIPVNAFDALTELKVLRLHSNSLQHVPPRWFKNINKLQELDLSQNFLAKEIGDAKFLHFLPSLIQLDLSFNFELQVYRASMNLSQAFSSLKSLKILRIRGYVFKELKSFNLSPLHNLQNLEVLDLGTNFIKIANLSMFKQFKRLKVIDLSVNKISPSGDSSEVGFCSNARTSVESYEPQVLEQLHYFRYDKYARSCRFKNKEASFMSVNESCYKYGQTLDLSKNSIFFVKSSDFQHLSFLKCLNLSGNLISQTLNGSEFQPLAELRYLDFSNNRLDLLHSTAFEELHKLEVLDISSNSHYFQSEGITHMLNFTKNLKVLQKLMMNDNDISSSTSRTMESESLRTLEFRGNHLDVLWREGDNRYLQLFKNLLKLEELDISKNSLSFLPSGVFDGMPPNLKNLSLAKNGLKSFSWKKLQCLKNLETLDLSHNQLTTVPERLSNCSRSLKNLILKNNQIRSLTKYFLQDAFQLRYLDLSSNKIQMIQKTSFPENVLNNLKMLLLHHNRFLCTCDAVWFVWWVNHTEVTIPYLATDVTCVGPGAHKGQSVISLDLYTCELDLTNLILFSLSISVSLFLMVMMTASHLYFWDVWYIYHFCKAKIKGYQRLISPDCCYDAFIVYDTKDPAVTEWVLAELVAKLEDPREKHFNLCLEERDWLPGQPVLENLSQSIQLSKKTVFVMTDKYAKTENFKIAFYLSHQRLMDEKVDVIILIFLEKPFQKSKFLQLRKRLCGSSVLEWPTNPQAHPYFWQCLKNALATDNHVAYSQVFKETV
Summary of the method: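 HEK293-Blue cells stably expressing hTLR7 with NF-κB/AP-1-driven SEAP reporter, incubated 20 h at 37 °C with serially diluted compound (1% DMSO) plus R848 agonist (10 μL of 20 μM stock). Supernatant SEAP measured with QUANTI-Blue after 2 h at 37 °C, absorbance 620-655 nm; antagonism as reduced reporter.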

Sequence of human TLR8 (Q9NR97 27-1041): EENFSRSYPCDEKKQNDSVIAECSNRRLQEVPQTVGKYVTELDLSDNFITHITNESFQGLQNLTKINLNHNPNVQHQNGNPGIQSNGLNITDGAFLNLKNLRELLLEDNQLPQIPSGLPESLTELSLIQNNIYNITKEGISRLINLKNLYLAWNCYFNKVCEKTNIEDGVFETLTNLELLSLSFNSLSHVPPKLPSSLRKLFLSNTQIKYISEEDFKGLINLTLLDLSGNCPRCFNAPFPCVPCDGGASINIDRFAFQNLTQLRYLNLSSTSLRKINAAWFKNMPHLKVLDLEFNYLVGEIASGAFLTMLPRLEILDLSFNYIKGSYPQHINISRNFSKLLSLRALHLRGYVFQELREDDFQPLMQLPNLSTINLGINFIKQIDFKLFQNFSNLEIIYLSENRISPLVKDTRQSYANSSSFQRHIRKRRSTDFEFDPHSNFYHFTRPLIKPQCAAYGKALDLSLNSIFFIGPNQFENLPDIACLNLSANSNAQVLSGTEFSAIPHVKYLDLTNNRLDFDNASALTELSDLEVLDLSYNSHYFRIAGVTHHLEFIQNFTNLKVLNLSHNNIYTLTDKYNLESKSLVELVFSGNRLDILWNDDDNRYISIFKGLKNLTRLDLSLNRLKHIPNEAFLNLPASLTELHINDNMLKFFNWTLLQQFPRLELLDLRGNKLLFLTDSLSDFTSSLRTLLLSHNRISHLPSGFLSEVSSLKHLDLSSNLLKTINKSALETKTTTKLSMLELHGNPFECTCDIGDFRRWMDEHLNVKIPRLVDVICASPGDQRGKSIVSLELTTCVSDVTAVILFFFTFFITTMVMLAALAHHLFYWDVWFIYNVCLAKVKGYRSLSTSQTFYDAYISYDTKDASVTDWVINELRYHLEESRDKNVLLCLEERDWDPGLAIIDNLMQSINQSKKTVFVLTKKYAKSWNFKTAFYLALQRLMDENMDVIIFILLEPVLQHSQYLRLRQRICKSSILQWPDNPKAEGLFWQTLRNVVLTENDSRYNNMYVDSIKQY

SMILES	IC50 (human TLR8)	IC50 (human TLR7)
C[C@@H]1CN(c2ccc(C#N)c3ncccc23)C[C@@H]2C[C@@H](Nc3ccc4c(n3)CCNC4)CN21 [Example 1, 5-[(4R,7R,8aS)-4-methyl-7-(5,6,7,8-tetrahydro-1,6-naphthyridin-2-ylamino)-3,4,6,7,8,8a-hexahydro-1H-pyrrolo[1,2-a]pyrazin-2-yl]quinoline-8-carbonitrile]	13.4 nM	16.1 nM
C[C@@H]1CN(c2ccc(C#N)c3ncccc23)C[C@@H]2C[C@@H](Nc3cc4c(cn3)CCNC4)CN21 [Example 2, 5-[(4R,7R,8aS)-4-methyl-7-(5,6,7,8-tetrahydro-2,6-naphthyridin-3-ylamino)-3,4,6,7,8,8a-hexahydro-1H-pyrrolo[1,2-a]pyrazin-2-yl]quinoline-8-carbonitrile]	12.5 nM	40.5 nM
C[C@@H]1CN(c2ccc(C#N)c3ncccc23)C[C@@H]2C[C@@H](Nc3ccc4c(n3)CNCC4)CN21 [Example 3, 5-[(4R,7R,8aS)-4-methyl-7-(5,6,7,8-tetrahydro-1,7-naphthyridin-2-ylamino)-3,4,6,7,8,8a-hexahydro-1H-pyrrolo[1,2-a]pyrazin-2-yl]quinoline-8-carbonitrile]	18.4 nM	38.7 nM

Other lines, results leading:

IC50 (human TLR8)	IC50 (human TLR7)	SMILES
20.3 nM	12.9 nM	[2H]c1ccc2c(N3C[C@@H]4C[C@H](N5CCNCC5)CN4[C@H](C)C3)ccc(C#N)c2n1 [Example 15, 5-[(4R,7S,8aS)-4-methyl-7-piperazin-1-yl-3,4,6,7,8,8a-hexahydro-1H-pyrrolo[1,2-a]pyrazin-2-yl]-2-deuterio-quinoline-8-carbonitrile]
18.3 nM	18.9 nM	[2H]c1ccc2c(N3C[C@@H]4C[C@H](N5CCC(N(C)C)CC5)CN4[C@H](C)C3)ccc(C#N)c2n1 [Example 20, 5-[(4R,7S,8aS)-7-[4-(dimethylamino)-1-piperidyl]-4-methyl-3,4,6,7,8,8a-hexahydro-1H-pyrrolo[1,2-a]pyrazin-2-yl]-2-deuterio-quinoline-8-carbonitrile]
